In patent US20170042936A1, “COMPOSITION FOR LOCAL AND CONTROLLED RELEASE OF DRUGS AND METHODS THEREOF” (INEB - INSTITUTO NACIONAL DE ENGENHARIA BIOMÉDICA, priority 2014, published 2017):
Entries after “also recorded” stand apart in the source; their conditions may differ.

Key:
MC3T3-E1 cells [1] = assay: Metabolic activity of pre-osteoblasts (resazurin) in presence of released vancomycin; type: cell-based, mouse
Description: (§1) The pre-osteoblasts MC3T3-E1 cells, an osteoblastic cell line derived from mouse calvaria, were grown in alpha minimum essential medium (α-MEM, Gibco, Life Technologies, Grand Island, N.Y.), supplemented with 1% penicillinstreptomycin (Gibco) and 10% fetal bovine serum (FBS, Invitrogen, Carlsbad, Calif.). Cells were incubated in a humidified environment at 37° C. and 5% of CO2. Vancomycin adsorption on granules was performed as mentioned earlier. Granules were placed in 96-well plates, and cells were seeded using a density of 5×10^4 cells/mL. Cells were cultured for 21 days, and medium was changed three times a week. As control, cells were cultured on tissue culture polystyrene (TCPS) with the same conditions used for the granules. For each condition, six replicates were used for the resazurin assay.
In an embodiment, the metabolic activity was also performed. The nontoxic alamar blue (resazurin) dye was used to determine the metabolic activity of MC3T3-E1 cells. The blue nonfluorescent dye is metabolized by cells, converting it to a reduced pink fluorescence dye. Therefore, 10% (v/v) of resazurin was added to the medium and incubated for 4 h at 37° C. and 5% of CO2. Afterward, 100 μL was transferred into a black 96-well plate, and fluorescence was measured at 530 nm excitation and 590 nm emission wavelength with a fluorescence reader (SynergyMix, BioTek, Winooski, Vt.) using Gen5 1.09 Data Analysis Software. These measurements were made at 24 h and 4, 7, 14, and 21 days of culture.

S. aureus ATCC 25923 = details: cited from earlier work
MC3T3-E1 cells [2] = assay: Cell morphology on granules by SEM and confocal laser scanning microscopy; type: cell-based, mouse; details: in presence of vancomycin
Description: as §1
Granules with seeded cells were rinsed with PBS and fixer using 1.5% gluteraldehyde (v/v) (Agar) in 0.14 M sodium cacodyl-ate buffer (Merck, Kenilworth, N.J.) at RT for 30 min. The samples were washed twice with PBS and then dehydrated in graded series of ethanol. Hexamethyldisilazane (Sigma) was added, and the samples were dried overnight at RT. Granules were visualized on SEM as previously described.
Confocal laser scanning microscopy. Granules with seeded cells were fixed using 4% paraformaldehyde for 15 min and then washed twice with PBS. Triton X-100 0.1% was used, for 5 min, to permeabilize the cells, and the cells were then incubated in 1% bovine serum albumin at 37° C. for 30 min. After incubation, the staining of the F-actin filaments was performed using Alexa Fluor 594 Phalloidin (1:100, Molecular Probes A12379, Invitrogen) in 1% bovine serum albumin at RT for 20 min in dark. The samples were then washed twice with PBS. Cell nuclei were stained with a solution of Hoechst dye (1:1000, Sigma) in PBS at RT for 15 min in dark. Finally, the samples were washed twice with PBS, and one drop of Vectashield was added. The images were acquired with a Leica SP5 Confocal microscope, using a […] oil immersion objective. […]

CN[C@H](CC(C)C)C(=O)N[C@H]1C(=O)N[C@@H](CC(N)=O)C(=O)N[C@H]2C(=O)N[C@H]3C(=O)N[C@H](C(=O)N[C@H](C(=O)O)c4cc(O)cc(O)c4-c4cc3ccc4O)[C@H](O)c3ccc(c(Cl)c3)Oc3cc2cc(c3O[C@@H]2O[C@H](CO)[C@@H](O)[C@H](O)[C@H]2O[C@H]2C[C@](C)(N)[C@H](O)[C@H](C)O2)Oc2ccc(cc2Cl)[C@H]1O [vancomycin]
viability of osteoblast cells in presence of vancomycin (MC3T3-E1 cells [1]; vancomycin released from heparinized granules, after 14 days of culture): cells were able to remain viable; also recorded: did not affect the viability of MC3T3-E1 cells | metabolic activity of MC3T3-E1 cells versus without vancomycin (MC3T3-E1 cells [1]; vancomycin released from heparinized nanoHA/collagen granules, 24 h of culture): no difference in the metabolic activity | metabolic activity of MC3T3-E1 cells (MC3T3-E1 cells [1]; vancomycin released from heparinized nanoHA/collagen granules, after 14 days up to 21 days of culture): increased their metabolic activity | metabolic activity of MC3T3-E1 cells (MC3T3-E1 cells [1]; vancomycin released from heparinized nanoHA/collagen granules, until 7 days of culture): decrease in metabolic activity | vancomycin minimum inhibitory concentration (MIC) (S. aureus ATCC 25923): 1 µg/mL | MC3T3-E1 cell morphology (confocal microscopy) (MC3T3-E1 cells [2]; 24 h and 4 days): more rounded morphology | MC3T3-E1 cell morphology (confocal microscopy) (MC3T3-E1 cells [2]; after 7 days): started to elongate on the surface of the material | MC3T3-E1 cell morphology (confocal microscopy) (MC3T3-E1 cells [2]; after 14 days): well spread, covering the entire surface
